From patent publication US20240228536A1, “PEPTIDES FOR USE IN SKIN AND HAIR PIGMENTATION” (Follicum AB, priority 2020, published 2024)

Legend:
Assay type in all cases: cell-based, human
[1] = test system: Pigmented skin equivalents (SEs), Melanoderms Mel-300-A (donor) and Mel-300-C-2 (donor); test: Skin equivalent culture, photographic assessment of pigmentation
Method: The skin equivalent surface area was 63.6 mm^2. Other equipment used included SMZ1000 Stereo Microscope (Nikon); UC30 Microscope Camera (Olympus); Phosphate-Buffered Saline (PBS); 6-well Tissue Culture Plates (Sarstedt); Image J software (https://imagej.nih.gov); Paintshop Photo Pro Software (Corel). The Melanoderms were prepared by carefully removing the agarose with sterile forceps and placing them in pre-warmed culture medium (37° C.) for an hour prior to treatment. The Melanoderms were then topically treated (without rubbing) with 25 μl of the various peptides, dissolved in dH2O at 10 mg/ml. […] The SEs were examined and removed from culture when skin darkening became visible. The pigmentation of the Melanoderms was macroscopically assessed by capturing high-resolution images using the Olympus microscope camera. […] They were then placed into a 6-well plate containing 1 ml PBS/well and images captured at ×8 magnification. The images were then processed using Image J & Paintshop Photo Pro software, to determine a quantifiable pixel area, which equated to the level of pigmentation present in the skin equivalent. The image brightness was normalised and the image gray-scaled using Paintshop Photo Pro, then Image J was used to threshold the image. The pigmentation was quantified by assessing total pixel area of pigmentation coverage in a fixed sample area. An ANOVA test (Dunnett's post-test) was used for the statistical analysis. Three different experiments were conducted. In the first, skin equivalents from both donors were included, and in experiment 2 and 3, only the […] donor was included. The SE of the […] donor from the first experiment received 5 treatments of 25 μl of peptide solution at 10 mg/ml; starting on the first day following receipt then on days 3, 5, 9 and 12. Peptides 1 (SEQ ID NO: 2), 3 (SEQ ID NO: 3) and 4 (SEQ ID NO: 4) were tested. The images were taken on Day 14. In experiment 2, peptide 3 and 4 were selected for testing to see if it had any efficacy in reducing melanin content or the distribution of melanin throughout the SE. This time, 5 SEs were used per treatment to improve statistical robustness. The experiment was continued for 20 days with treatments on days 0, 3, 7 and 12 and medium changes every other day. In experiment 3 a more highly pigmented SE ([…] donor melanocytes) was used and with an increased sample size with n=7 per treatment. […] Treatment was repeated on days 5, 9, 12 and 15 with medium changed every other day.

skin equivalents (SEs) = test: H&E and Warthin Starry staining of skin equivalents; settings: day 20
Description: Two skin equivalents (SEs) were used from one donor.
The analysis was achieved using the Warthin Starry assay using our recently published method (Joly-Tonetti et al 2016) and hematoxylin&eosin (H&E) staining.
The SEs were stained with Warthin Starry stain to visualise and quantify the melanin in sections. The SEs were removed from culture on day 20 and washed in PBS. They were then flash frozen in liquid nitrogen and mounted in OCT for sectioning. 10 μm sections were cut using a cryostat, the sections collected on slides and fixed in Acetone for 10 mins. The OCT was removed from the section by washing in acidulated water for 20 mins. The slides were then incubated in 1% silver nitrate solution for 1 hour at 43° C. […] The slides were stained for 2 mins then the staining was stopped by running the slides under hot tap water. Slides were then mounted using Histomount. Brightfield images were captured using a Nikon Eclipse microscope. Image analysis of the melanin density in sections was performed using Image J and densitometric thresholding. Results are presented in pixel intensity units. For the hematoxylin&eosin (H&E) staining, the SEs were flash frozen, sectioned and fixed as above. The slides were then washed in dH2O to remove the OCT for 20 mins. Haematoxylin was filtered using filter paper into a Coplin jar. Further Coplin jars were also prepared containing the following: Tap Water, Scott's Tap Water, 0.25% Eosin, 50% Ethanol, 70% Ethanol, 90% Ethanol, Ethanol and Histoclear. The slides were then placed into Haematoxylin for 2 mins, and then placed into tap water for 30 secs, Scott's Tap Water for 1 min & Eosin for 2 mins. The slides were then dehydrated through the Ethanol (1 min each) then placed into Histoclear for 2 mins and mounted using Histomount. Brightfield images were captured using a Nikon Eclipse microscope.

Melanoderm SEs = test: Warthin-Starry silver staining of melanin granules in Melanoderms; settings: in formulation B at all three concentrations (0.4%, 1%, 2%), 7 days, compared to formulation only
Method: Tissue from each Melanoderm of Example 13 was carefully cut from inserts using a sterile scalpel blade (no. 11) and cut in half. One half was submerged overnight at −20° C. in RNAlater solution (Qiagen, UK) for RNA stabilization. The following day excess RNAlater solution was removed, and samples stored at −80° C. until RNA extracted for qPCR. The second half of each tissue was fixed overnight in 10% neutral buffered formalin then processed for wax embedding, sectioning, and Warthin-Starry staining.
All reagents used were of research grade quality and obtained from Sigma, UK. For silver staining high purity photo-grade (>99%) Silver nitrate was used. All reagents were prepared in acidulated (citrulated) distilled water (approx. 1 ml/L of 1% Citric acid was added to distilled water to change the pH to 3.4). Other equipment used were two water baths pre-set at 43° C. and 54° C., plastic staining tubs and slide racks for incubating slides, magnetic stirrers, and calibrated pH meter.
Melanin in tissue sections was stained using the modified Warthin-Starry staining method (Warthin, A. et al., Am. J. Syph. (1920) 4:97-103; Warkel, R. et al., Am. J. Clin. Path. (1980) 73 June (6): 812-5.). Briefly, 7 μm tissue sections were cut from wax blocks and floated onto charged slides (Leica Xtra clipped corner glass slides). […]

[2] = experiment 1, donor, 10 mg/ml, 20 days in culture
[3] = experiment 1, donor, 5 topical treatments of 25 μl at 10 mg/ml in dH2O, images Day 14
[4] = experiment 3, more highly pigmented SE (donor), 10 mg/ml, n=7

| Substance | pigmentation of skin equivalents (photographic assessment) compared to vehicle control [1, 2] | pigmentation of skin equivalents (photographic assessment) compared to vehicle control [1, 3] | pigmentation of skin equivalents (photographic assessment) compared to vehicle control ([1]; experiment 2, donor, 10 mg/ml, 20 days, n=5) | pigmentation of skin equivalents (photographic assessment) compared to vehicle control [1, 4] | melanin content and distribution in SE sections (Warthin Starry) (skin equivalents (SEs); one of the donors (FIG. 3A)) | melanin content and distribution in SE sections (Warthin Starry) (skin equivalents (SEs); second donor (FIG. 3B-D)) | melanin in epidermal layers (Warthin-Starry) (Melanoderm SEs) |
| --- | --- | --- | --- | --- | --- | --- | --- |
| Asn-Ala-Ala-Met (NAAM; (1)..(4) Peptide 4) | somewhat darker and mottled appearance | more pigmented compared to the vehicle | increase in pigmentation compared to the vehicle control samples | increase in pigmentation | increased the melanin content in the SEs across all layers | visibly increased melanin content | greater increase in melanin in all layers of the epidermis |
| Asn-Ala-His-Met (NAHM; (1)..(4) Peptide 1) | somewhat darker and mottled appearance | more pigmented compared to the vehicle | – | increase in pigmentation | – | visibly increased melanin content | modest increase in melanin in the basal and stratum spinosum layers |
